According to patent US11491157B2, “Cycloalkyl substituted pyrazolopyrimidines having activity against RSV” (priority 2018, dated 2022):
Structures can show the parent of a compound that is named as a salt.

What was measured:
in vitro = details: human
Method: (§1) Black 384-well clear-bottom microtiter plates (Corning, Amsterdam, The Netherlands) were filled via acoustic drop ejection using the echo liquid handler (Labcyte, Sunnyvale, Calif.). 200 nL of compound stock solutions (100% DMSO) were transferred to the assay plates. 9 serial 4-fold dilutions of compound were made, creating per quadrant the same compound concentration. The assay was initiated by adding 10 μL of culture medium to each well (RPMI medium without phenol red, 10% FBS-heat inactivated, 0.04% gentamycin (50 mg/mL). All addition steps are done by using a multidrop dispenser (Thermo Scientific, Erembodegem, Belgium). Next, rgRSV224 virus (MOI=1) diluted in culture medium was added to the plates. rgRSV224 virus is an engineered virus that includes an additional GFP gene (Hallak L K, Spillmann D, Collins P L, Peeples M E. Glycosaminoglycan sulfation requirements for respiratory syncytial virus infection; Journal of virology (2000), 74(22), 10508-13) and was in-licensed from the NIH (Bethesda, Md., USA). Finally, 20 μL of a HeLa cell suspension (3,000 cells/well) were plated. Medium, virus- and mock-infected controls were included in each test. The wells contain 0.05% DMSO per volume. Cells were incubated at 37° C. in a 5% CO2 atmosphere. Three days post-virus exposure, viral replication was quantified by measuring GFP expression in the cells by an in house developed MSM laser microscope (Tibotec, Beerse, Belgium). The EC50 was defined as the 50% inhibitory concentration for GFP expression. In parallel, compounds were incubated for three days in a set of white 384-well microtiter plates (Corning) and the cytotoxicity of compounds in HeLa cells was determined by measuring the ATP content of the cells using the ATPlite kit (Perkin Elmer, Zaventem, Belgium) according to the manufacturer's instructions. The CC50 was defined as the 50% concentration for cytotoxicity.

rgRSV224 virus = experiment: Antiviral activity: rgRSV224 (GFP) replication in HeLa cells; details: human respiratory syncytial virus, 72 h, read-out: RSV HELA EC50
Method: as §1

Row | Structure (SMILES) | melting point [°C] | CC50 at 3 days (in vitro) [nM] | EC50 (rgRSV224 virus) [nM]
1 | C[C@@H]1c2ccccc2CCN1C(=O)c1cc(C2CC2)n2nc(-c3ccc([C@H]4C[C@@H]4C(=O)NCCC#N)cc3F)cc2n1 [Compound 18, (1S,2S)—N-(2-Cyanoethyl)-2-(4-{7-cyclopropyl-5-[(1R)-1-methyl-1,2,3,4-tetrahydro-isoquinoline-2-carbonyl]pyrazolo[1,5-a]pyrimidin-2-yl}-3-fluorophenyl)cyclopropane-1-carboxamide] | 212.72 | > 100000 | 76
2 | C[C@@H]1c2ccsc2CCN1C(=O)c1cc(C2CC2)n2nc(-c3ccc([C@H]4C[C@@H]4C(N)=O)cc3F)cc2n1 (single isomer, unassigned) [Compound 10, (1S,2S)-2-(4-{7-Cyclopropyl-5-[(4*R)-4-methyl-4,5,6,7-tetrahydro-thieno[3,2-c]pyridine-5-carbonyl]pyrazolo[1,5-a]pyrimidin-2-yl}-3-fluorophenyl)cyclopropane-1-carboxamide] | 302.9 | > 25000 | 14
3 | C=CCNC(=O)[C@H]1C[C@@H]1c1ccc(-c2cc3nc(C(=O)N4CCc5ccccc5[C@H]4C)cc(C4CC4)n3n2)c(F)c1 [Compound 16, (1S,2S)-2-(4-{7-Cyclopropyl-5-[(1R)-1-methyl-1,2,3,4-tetrahydroisoquinoline-2-carbonyl]pyrazolo[1,5-a]pyrimidin-2-yl}-3-fluorophenyl)-N-(prop-2-en-1-yl)cyclopropane-1-carboxamide] | 240.35 | > 100000 | 263
4 | C[C@@H]1c2ccccc2CCN1C(=O)c1cc(C2CC2)n2nc(-c3ccc([C@H]4C[C@@H]4C(N)=O)cc3F)cc2n1 [Compound 7, (1S,2S)-2-(4-{7-Cyclopropyl-5-[(1R)-1-methyl-1,2,3,4-tetrahydroisoquinoline-2-carbonyl]pyrazolo[1,5-a]pyrimidin-2-yl}-3-fluorophenyl)cyclopropane-1-carboxamide] | 280.69 | > 100000 | 30
5 | C[C@@H]1c2ccccc2CCN1C(=O)c1cc(C2CC2)n2nc(-c3ccc([C@H]4C[C@@H]4NC(=O)NC4CC4)cc3F)cc2n1 [Compound 30, 1-Cyclopropyl-3-[(1S,2R)-2-(4-{7-cyclopropyl-5-[(1R)-1-methyl-1,2,3,4-tetrahydro-isoquinoline-2-carbonyl]pyrazolo[1,5-a]pyrimidin-2-yl}-3-fluorophenyl)cyclopropyl]urea] | 213.73 | 40800 | 49
6 | CC(=O)N[C@H]1C[C@@H]1c1ccc(-c2cc3nc(C(=O)N4CCc5ccccc5[C@H]4C)cc(C4CC4)n3n2)c(F)c1 [Compound 34, N-[(1S,2R)-2-(4-{7-Cyclopropyl-5-[(1R)-1-methyl-1,2,3,4-tetrahydroisoquinoline-2-carbonyl]pyrazolo[1,5-a]pyrimidin-2-yl}-3-fluorophenyl)cyclopropyl]acetamide] | 232.53 | > 100000 | 22
7 | C[C@@H]1c2ccccc2CCN1C(=O)c1cc(-c2ccccc2)n2nc(-c3ccc([C@@H]4C[C@H]4C(=O)NS(C)(=O)=O)cc3F)cc2n1 (single isomer, unassigned) (as salt: salt) [Compound 32, (1*R,2*R)-2-(3-Fluoro-4-{5-[(1R)-1-methyl-1,2,3,4-tetrahydroisoquinoline-2-carbonyl]-7-phenylpyrazolo[1,5-a]pyrimidin-2-yl}phenyl)-N-methanesulfonyl-cyclopropane-1-carboxamide; propan-2-amine salt] | 186.79 | – | –
8 | C[C@@H]1c2ccccc2CCN1C(=O)c1cc(C2CC2)n2nc(-c3ccc([C@H]4C[C@@H]4C(=O)NC4COC4)cc3F)cc2n1 [Compound 19, (1S,2S)-2-(4-{7-Cyclopropyl-5-[(1R)-1-methyl-1,2,3,4-tetrahydroisoquinoline-2-carbonyl]-pyrazolo[1,5-a]pyrimidin-2-yl}-3-fluorophenyl)-N-(oxetan-3-yl)cyclopropane-1-carboxamide] | 248.97 | > 100000 | 95
9 | C[C@@H]1c2cc(F)sc2CCN1C(=O)c1cc(C2CC2)n2nc(-c3ccc([C@H]4C[C@@H]4C(N)=O)cc3F)cc2n1 (relative stereo) [Compound 11, (1S,2S)-2-(4-{7-Cyclopropyl-5-[(4*R)-2-fluoro-4-methyl-4,5,6,7-tetrahydro-thieno[3,2-c]pyridine-5-carbonyl]pyrazolo[1,5-a]pyrimidin-2-yl}-3-fluorophenyl)cyclopropane-1-carboxamide] | 300.14 | – | 44
10 | CCS(=O)(=O)NC(=O)[C@H]1C[C@@H]1c1ccc(-c2cc3nc(C(=O)N4CCc5ccccc5[C@H]4C)cc(C4CC4)n3n2)c(F)c1 [Compound 25, (1S,2S)-2-(4-{7-Cyclopropyl-5-[(1R)-1-methyl-1,2,3,4-tetrahydroisoquinoline-2-carbonyl]pyrazolo[1,5-a]pyrimidin-2-yl}-3-fluorophenyl)-N-(ethanesulfonyl)-cyclopropane-1-carboxamide] | 171.93 | 51900 | 34
11 | C[C@@H]1c2ccccc2CCN1C(=O)c1cc(C2CC2)n2nc(-c3ccc([C@H]4C[C@@H](CO)C4)cc3F)cc2n1 [Compound 42, [cis-3-(4-{7-Cyclopropyl-5-[(1R)-1-methyl-1,2,3,4-tetrahydroisoquinoline-2-carbonyl]-pyrazolo[1,5-a]pyrimidin-2-yl}-3-fluorophenyl)cyclobutyl]methanol] | 129.63 | 69200 | 263
12 | CNC(=O)[C@H]1C[C@@H]1c1ccc(-c2cc3nc(C(=O)N4CCc5ccccc5[C@H]4C)cc(C4CC4)n3n2)c(F)c1 [Compound 12, (1S,2S)-2-(4-{7-Cyclopropyl-5-[(1R)-1-methyl-1,2,3,4-tetrahydroisoquinoline-2-carbonyl]pyrazolo[1,5-a]pyrimidin-2-yl}-3-fluorophenyl)-N-methylcyclopropane-1-carboxamide] | 258.18 | > 100000 | 24
13 | C[C@@H]1c2ccsc2CCN1C(=O)c1cc(C2CC2)n2nc(-c3ccc([C@H]4C[C@@H]4C(=O)NS(C)(=O)=O)cc3F)cc2n1 (single isomer, unassigned) [Compound 28, (1S,2S)-2-(4-{7-Cyclopropyl-5-[(4*R)-4-methyl-4,5,6,7-tetrahydro-thieno[3,2-c]pyridine-5-carbonyl]pyrazolo[1,5-a]pyrimidin-2-yl}-3-fluorophenyl)-N-methanesulfonyl-cyclopropane-1-carboxamide] | 286.12 | 53400 | 37
14 | CCCNC(=O)[C@H]1C[C@@H]1c1ccc(-c2cc3nc(C(=O)N4CCc5ccccc5[C@H]4C)cc(C4CC4)n3n2)c(F)c1 [Compound 15, (1S,2S)-2-(4-{7-Cyclopropyl-5-[(1R)-1-methyl-1,2,3,4-tetrahydroisoquinoline-2-carbonyl]pyrazolo[1,5-a]pyrimidin-2-yl}-3-fluorophenyl)-N-propylcyclopropane-1-carboxamide] | 238.1 | > 100000 | 408
15 | C[C@@H]1c2ccccc2CCN1C(=O)c1cc(C2CC2)n2nc(-c3ccc([C@H]4C[C@@H]4C(=O)NCCO)cc3F)cc2n1 [Compound 21, (1S,2S)-2-(4-{7-Cyclopropyl-5-[(1R)-1-methyl-1,2,3,4-tetrahydroisoquinoline-2-carbonyl]-pyrazolo[1,5-a]pyrimidin-2-yl}-3-fluorophenyl)-N-(2-hydroxyethyl)-cyclopropane-1-carboxamide] | – | > 100000 | 62
16 | C[C@@H]1c2ccccc2CCN1C(=O)c1cc(-c2ccccc2)n2nc(-c3ccc([C@H]4C[C@@H]4C(=O)NS(C)(=O)=O)cc3F)cc2n1 (single isomer, unassigned) [Compound 31, (1*S,2*S)-2-(3-Fluoro-4-{5-[(1R)-1-methyl-1,2,3,4-tetrahydroisoquinoline-2-carbonyl]-7-phenylpyrazolo[1,5-a]pyrimidin-2-yl}phenyl)-N-methanesulfonyl-cyclopropane-1-carboxamide; propan-2-amine salt] | – | 35200 | 40
17 | C[C@@H]1c2ccccc2CCN1C(=O)c1cc(C2CC2)n2nc(-c3ccc([C@H]4C[C@@H]4O)cc3F)cc2n1 [Compound 38, (1S,2R)-2-(4-{7-Cyclopropyl-5-[(1R)-1-methyl-1,2,3,4-tetrahydroisoquinoline-2-carbonyl]pyrazolo[1,5-a]pyrimidin-2-yl}-3-fluorophenyl)cyclopropan-1-ol] | – | 50400 | 159
18 | C[C@@H]1c2ccccc2CCN1C(=O)c1cc(C2CC2)n2nc(-c3ccc([C@H]4C[C@@H]4C#N)cc3F)cc2n1 [Compound 3, (1S,2S)-2-(4-{7-Cyclopropyl-5-[(1R)-1-methyl-1,2,3,4-tetrahydroisoquinoline-2-carbonyl]pyrazolo[1,5-a]pyrimidin-2-yl}-3-fluorophenyl)cyclopropane-1-carbonitrile] | – | > 100000 | 319
19 | C[C@@H]1c2ccccc2CCN1C(=O)c1cc(C2CC2)n2nc(-c3ccc([C@H]4C[C@@H]4CO)cc3F)cc2n1 [Compound 1, [(1S,2S)-2-(4-{7-Cyclopropyl-5-[(1R)-1-methyl-1,2,3,4-tetrahydroisoquinoline-2-carbonyl]pyrazolo[1,5-a]pyrimidin-2-yl}-3-fluorophenyl)cyclopropyl]methanol] | – | 41800 | 62
20 | C[C@@H]1c2ccccc2CCN1C(=O)c1cc(C2CC2)n2nc(-c3cnc(C4C[C@H]4C(N)=O)cc3F)cc2n1 (relative stereo) [Compound 49, Trans-2-(5-{7-Cyclopropyl-5-[(1R)-1-methyl-1,2,3,4-tetrahydroisoquinoline-2-carbonyl]pyrazolo[1,5-a]pyrimidin-2-yl}-4-fluoropyridin-2-yl)cyclopropane-1-carboxamide] | – | 10800 | 150
